Laboratory results taken from patent EP1345943B1, “INHIBITORS OF PAPILLOMA VIRUS” (BOEHRINGER INGELHEIM (CANADA) LTD., priority 2000, dated 2002).

Target: E1-E2-DNA complex (Human papillomavirus 11, UniProt P04015)
Test: E2-dependent E1 DNA binding assay (E1-E2 DNA assay)
Settings: E1-E2 DNA assay of Example 11, HPV-11
How it was run: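 SPA-format binding of E1 (about 100-200 ng purified) and E2 (8 ng) to a 0.4 ng [33P]-labelled 400 bp HPV-11 origin probe, in 20 mM Tris pH 7.6, 100 mM NaCl, 1 mM DTT, 1 mM EDTA, for 1 h at room temperature. Complex captured 1 h with anti-E1 C-terminal antiserum on protein A-SPA beads and counted by scintillation; IC50 derived.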

E1-E2-DNA complex, sequence (P04015 whole entry, one chain of several): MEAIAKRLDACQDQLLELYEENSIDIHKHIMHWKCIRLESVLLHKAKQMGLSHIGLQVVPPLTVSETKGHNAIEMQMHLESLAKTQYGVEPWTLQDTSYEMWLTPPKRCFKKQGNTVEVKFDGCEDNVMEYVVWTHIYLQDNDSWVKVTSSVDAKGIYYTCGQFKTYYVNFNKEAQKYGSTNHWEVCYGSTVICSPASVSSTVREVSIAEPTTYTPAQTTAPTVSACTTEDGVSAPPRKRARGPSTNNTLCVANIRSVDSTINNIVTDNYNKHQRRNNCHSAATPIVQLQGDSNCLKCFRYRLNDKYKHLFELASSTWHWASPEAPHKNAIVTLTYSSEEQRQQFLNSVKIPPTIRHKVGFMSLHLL

Which IC50 does the source give for `N#Cc1cccc(NC(=O)C2C(c3ccc(Cl)c(Cl)c3)OC3(C(=O)c4ccccc4C3=O)C2C(=O)O)c1` (centres unmarked) [Compound 1127] here?
Its IC50 is 0.5 to 5 µM.

For `COc1ccc2c(c1)C(=O)C1(OC(c3ccc(Cl)c(Cl)c3)C(C(=O)Nc3ccc(C(C)=O)cc3)C1C(=O)O)C2=O` (centres unmarked) [Compound 1129], which IC50 is on record?
The IC50 was 5 to 50 µM.

`COc1ccc2c(c1)C(=O)C1(OC(c3ccc(Cl)c(Cl)c3)C(C(=O)Nc3ccc(C(C)=O)cc3)C1C(=O)O)C2=O` (centres unmarked) [Compound 1130] was tested. Which IC50 did it give?
The IC50 was 5 to 50 µM.

How did the IC50 turn out when `O=C(Nc1ccc(OC(F)(F)F)cc1)C1C(c2ccc(F)c(Cl)c2)OC2(C(=O)c3ccccc3C2=O)C1C(=O)O` (centres unmarked) [Compound 1131] was run?
Its IC50 is 0.5 to 5 µM.

Which IC50 does the source give for `Cc1ccc(NC(=O)C2C(c3ccc(F)c(F)c3)OC3(C(=O)c4ccccc4C3=O)C2C(=O)O)cc1` (centres unmarked) [Compound 1132] here?
Its IC50 is 5 to 50 µM.

`O=C(Nc1ccc(Cl)c(Cl)c1)C1C(c2ccc(Br)c(Br)c2)OC2(C(=O)c3ccccc3C2=O)C1C(=O)O` (centres unmarked) [Compound 1134] was tested. Which IC50 did it give?
The IC50 was less than 0.5 µM.

How did the IC50 turn out when `O=C(NCCc1ccccc1Cl)C1C(c2ccc(Cl)c(Cl)c2)OC2(C(=O)c3ccccc3C2=O)C1C(=O)O` (centres unmarked) [Compound 1135] was run?
The IC50 was less than 0.5 µM.

For `CCOc1ccccc1NC(=O)C1C(c2ccc(Cl)c(Cl)c2)OC2(C(=O)c3ccccc3C2=O)C1C(=O)O` (centres unmarked) [Compound 1136], which IC50 is on record?
Its IC50 is 5 to 50 µM.

With `COc1ccc(OC)c(CCNC(=O)C2C(c3ccc(Cl)c(Cl)c3)OC3(C(=O)c4ccccc4C3=O)C2C(=O)O)c1` (centres unmarked) [Compound 1137] as the compound, how does the IC50 read?
The IC50 was 0.5 to 5 µM.

Which IC50 does the source give for `O=C(NCCc1cccs1)C1C(c2ccc(Cl)c(Cl)c2)OC2(C(=O)c3ccccc3C2=O)C1C(=O)O` (centres unmarked) [Compound 1138] here?
Its IC50 is less than 0.5 µM.

How did the IC50 turn out when `O=C(Nc1ccccc1OC(F)(F)F)C1C(c2ccc(Cl)c(Cl)c2)OC2(C(=O)c3ccccc3C2=O)C1C(=O)O` (centres unmarked) [Compound 1139] was run?
Its IC50 is 0.5 to 5 µM.

How did the IC50 turn out when `CN(CCN(C)c1ccc([N+](=O)[O-])c2nonc12)C(=O)CNCc1ccc(NC(=O)C2C(c3ccc(Cl)c(Cl)c3)OC3(C(=O)c4ccccc4C3=O)C2C(=O)O)cc1` (centres unmarked) [Compound 1140] was run?
Its IC50 is 0.5 to 5 µM.

For `CCCCC(=O)Nc1cc(C2OC3(C(=O)c4ccccc4C3=O)C(C(=O)O)C2C(=O)Nc2ccc(C(C)=O)cc2)ccc1Cl` (centres unmarked) [Compound 1141], which IC50 is on record?
The IC50 was 0.5 to 5 µM.

With `O=C(Nc1ccccc1Br)C1C(c2cc(Cl)cc(Cl)c2)OC2(C(=O)c3ccccc3C2=O)C1C(=O)O` (centres unmarked) [Compound 1142] as the compound, how does the IC50 read?
The IC50 was less than 0.5 µM.

`O=C(Nc1ccc(N2CCOCC2)cc1)C1C(c2ccc(Br)c(Br)c2)OC2(C(=O)c3ccc(F)cc3C2=O)C1C(=O)O` (centres unmarked) [Compound 1143] was tested. Which IC50 did it give?
The IC50 was less than 0.5 µM.

With `O=C(Nc1ccc(N2CCOCC2)cc1)C1C(c2ccc(Br)c(Br)c2)OC2(C(=O)c3ccc(F)cc3C2=O)C1C(=O)O` (centres unmarked) [Compound 1144] as the compound, how does the IC50 read?
The IC50 was less than 0.5 µM.

For `O=C1C2C(c3ccc(Cl)cc3)OC3(C(=O)c4ccccc4C3=O)C2C(=O)N1c1ccc2c(c1)OCO2` (centres unmarked) [Compound 2001], which IC50 is on record?
The IC50 was 5 to 50 µM.

How did the IC50 turn out when `COc1ccc(N2C(=O)C3C(c4ccc(Cl)cc4)OC4(C(=O)c5ccccc5C4=O)C3C2=O)cc1OC` (centres unmarked) [Compound 2002] was run?
Its IC50 is 5 to 50 µM.

With `CC(=O)c1ccc(N2C(=O)C3C(c4ccc(Cl)cc4)OC4(C(=O)c5ccccc5C4=O)C3C2=O)cc1` (centres unmarked) [Compound 2003] as the compound, how does the IC50 read?
The IC50 was 5 to 50 µM.

With `O=C1C2C(c3ccc(Cl)cc3)OC3(C(=O)c4ccccc4C3=O)C2C(=O)N1c1ccc(F)cc1` (centres unmarked) [Compound 2004] as the compound, how does the IC50 read?
Its IC50 is 5 to 50 µM.

Which IC50 does the source give for `O=C1C2C(c3cccc(Cl)c3)OC3(C(=O)c4ccccc4C3=O)C2C(=O)N1c1ccc2c(c1)OCO2` (centres unmarked) [Compound 2005] here?
The IC50 was 0.5 to 5 µM.

For `Cc1ccc(N2C(=O)C3C(c4ccc(Cl)cc4)OC4(C(=O)c5ccccc5C4=O)C3C2=O)cc1` (centres unmarked) [Compound 2006], which IC50 is on record?
Its IC50 is 5 to 50 µM.

`O=C1C2C(c3ccc(Cl)cc3)OC3(C(=O)c4ccccc4C3=O)C2C(=O)N1c1ccc(Cl)cc1` (centres unmarked) [Compound 2007] was tested. Which IC50 did it give?
The IC50 was 5 to 50 µM.

For `O=C1C2C(c3ccc(C(F)(F)F)cc3)OC3(C(=O)c4ccccc4C3=O)C2C(=O)N1c1ccc2c(c1)OCO2` (centres unmarked) [Compound 2008], which IC50 is on record?
Its IC50 is 5 to 50 µM.

`O=C1C2C(c3ccc(Cl)cc3)OC3(C(=O)c4ccccc4C3=O)C2C(=O)N1c1cccc(Cl)c1` (centres unmarked) [Compound 2009] was tested. Which IC50 did it give?
The IC50 was 5 to 50 µM.

Which IC50 does the source give for `Cc1cccc(N2C(=O)C3C(c4ccc(Cl)cc4)OC4(C(=O)c5ccccc5C4=O)C3C2=O)c1` (centres unmarked) [Compound 2010] here?
Its IC50 is 5 to 50 µM.
